± gives the expanded uncertainty stated by the source. Values belong to the compound of their own block, whether it stands above or below them.
Legend:
[1] = Liquid; for mass density / speed of sound: 298.15 K, 101.3 kPa
[2] = xn = mol fraction of the nth substance listed; conditions: 298.15 K, 101.3 kPa, Liquid

SMILES: CC(C)=O [acetone]
mass density [1]: 784.37 ± 0.31 kg/m3
speed of sound [1]: 1162 ± 2 m/s
Normal boiling temperature [1]: 56.12 ± 0.13 °C

SMILES: CC(C)=O [acetone] + COC(=O)OC
mass density ([2]; x1 = 1): 784.37 ± 0.31 kg/m3
speed of sound ([2]; x1 = 1): 1162 ± 2 m/s

SMILES: CCC(C)=O [butanone]
mass density [1]: 799.7 ± 0.35 kg/m3
speed of sound [1]: 1192 ± 2 m/s
Normal boiling temperature [1]: 79.63 ± 0.13 °C

SMILES: CCC(C)=O [butanone] + COC(=O)OC
mass density ([2]; x1 = 0.0499): 1049.31 ± 0.54 kg/m3
speed of sound ([2]; x1 = 0.0499): 1199 ± 2 m/s
mass density ([2]; x1 = 0.0999): 1035.29 ± 0.51 kg/m3
speed of sound ([2]; x1 = 0.0999): 1198 ± 2 m/s
mass density ([2]; x1 = 0.1994): 1007.79 ± 0.47 kg/m3
speed of sound ([2]; x1 = 0.1994): 1196 ± 2 m/s
mass density ([2]; x1 = 0.2996): 980.5 ± 0.44 kg/m3
speed of sound ([2]; x1 = 0.2996): 1194 ± 2 m/s
mass density ([2]; x1 = 0.3986): 953.88 ± 0.42 kg/m3
speed of sound ([2]; x1 = 0.3986): 1192 ± 2 m/s
mass density ([2]; x1 = 0.5027): 926.3 ± 0.41 kg/m3
speed of sound ([2]; x1 = 0.5027): 1191 ± 2 m/s
mass density ([2]; x1 = 0.6014): 900.51 ± 0.38 kg/m3
speed of sound ([2]; x1 = 0.6014): 1190 ± 2 m/s
mass density ([2]; x1 = 0.7102): 872.49 ± 0.36 kg/m3
speed of sound ([2]; x1 = 0.7102): 1190 ± 2 m/s
mass density ([2]; x1 = 0.8038): 848.69 ± 0.35 kg/m3
speed of sound ([2]; x1 = 0.8038): 1191 ± 2 m/s
mass density ([2]; x1 = 0.9043): 823.48 ± 0.35 kg/m3
speed of sound ([2]; x1 = 0.9043): 1191 ± 2 m/s
mass density ([2]; x1 = 0.9514): 811.75 ± 0.35 kg/m3
speed of sound ([2]; x1 = 0.9514): 1191 ± 2 m/s
mass density ([2]; x1 = 1): 799.7 ± 0.35 kg/m3
speed of sound ([2]; x1 = 1): 1192 ± 2 m/s

SMILES: COC(=O)OC [dimethyl carbonate]
mass density [1]: 1063.33 ± 0.56 kg/m3
speed of sound [1]: 1198 ± 2 m/s
Normal boiling temperature [1]: 90.31 ± 0.13 °C

SMILES: COC(=O)OC [dimethyl carbonate] + CC(C)=O
mass density ([2]; x2 = 0): 1063.33 ± 0.56 kg/m3
speed of sound ([2]; x2 = 0): 1198 ± 2 m/s
mass density ([2]; x2 = 0.0447): 1052.64 ± 0.53 kg/m3
speed of sound ([2]; x2 = 0.0447): 1196 ± 2 m/s
mass density ([2]; x2 = 0.0906): 1041.54 ± 0.51 kg/m3
speed of sound ([2]; x2 = 0.0906): 1195 ± 2 m/s
mass density ([2]; x2 = 0.1886): 1017.22 ± 0.45 kg/m3
speed of sound ([2]; x2 = 0.1886): 1192 ± 2 m/s
mass density ([2]; x2 = 0.2886): 991.68 ± 0.4 kg/m3
speed of sound ([2]; x2 = 0.2886): 1188 ± 2 m/s
mass density ([2]; x2 = 0.3941): 963.86 ± 0.37 kg/m3
speed of sound ([2]; x2 = 0.3941): 1184 ± 2 m/s
mass density ([2]; x2 = 0.4933): 936.83 ± 0.35 kg/m3
speed of sound ([2]; x2 = 0.4933): 1180 ± 2 m/s
mass density ([2]; x2 = 0.5988): 907.17 ± 0.32 kg/m3
speed of sound ([2]; x2 = 0.5988): 1176 ± 2 m/s
mass density ([2]; x2 = 0.7021): 877.06 ± 0.3 kg/m3
speed of sound ([2]; x2 = 0.7021): 1172 ± 2 m/s
mass density ([2]; x2 = 0.7974): 848.41 ± 0.29 kg/m3
speed of sound ([2]; x2 = 0.7974): 1168 ± 2 m/s
mass density ([2]; x2 = 0.9053): 814.88 ± 0.29 kg/m3
speed of sound ([2]; x2 = 0.9053): 1165 ± 2 m/s
mass density ([2]; x2 = 0.9534): 799.51 ± 0.3 kg/m3
speed of sound ([2]; x2 = 0.9534): 1163 ± 2 m/s

SMILES: COC(=O)OC [dimethyl carbonate] + CCC(C)=O
mass density ([2]; x2 = 0): 1063.33 ± 0.56 kg/m3
speed of sound ([2]; x2 = 0): 1198 ± 2 m/s

SMILES: COC(=O)OC [dimethyl carbonate] + CCCC(C)=O
mass density ([2]; x2 = 0): 1063.33 ± 0.56 kg/m3
speed of sound ([2]; x2 = 0): 1198 ± 2 m/s

mass density [1]: 801.39 ± 0.35 kg/m3
speed of sound [1]: 1212 ± 2 m/s
Normal boiling temperature [1]: 102.21 ± 0.13 °C
SMILES: CCCC(C)=O [pentan-2-one]

mass density ([2]; x1 = 0.0498): 1046.71 ± 0.53 kg/m3
speed of sound ([2]; x1 = 0.0498): 1199 ± 2 m/s
mass density ([2]; x1 = 0.1004): 1030.33 ± 0.51 kg/m3
speed of sound ([2]; x1 = 0.1004): 1198 ± 2 m/s
mass density ([2]; x1 = 0.1996): 999.49 ± 0.47 kg/m3
speed of sound ([2]; x1 = 0.1996): 1197 ± 2 m/s
mass density ([2]; x1 = 0.3009): 969.77 ± 0.44 kg/m3
speed of sound ([2]; x1 = 0.3009): 1198 ± 2 m/s
mass density ([2]; x1 = 0.398): 942.67 ± 0.42 kg/m3
speed of sound ([2]; x1 = 0.398): 1198 ± 2 m/s
mass density ([2]; x1 = 0.5036): 914.75 ± 0.41 kg/m3
speed of sound ([2]; x1 = 0.5036): 1200 ± 2 m/s
mass density ([2]; x1 = 0.6017): 890.1 ± 0.38 kg/m3
speed of sound ([2]; x1 = 0.6017): 1201 ± 2 m/s
mass density ([2]; x1 = 0.7046): 865.52 ± 0.36 kg/m3
speed of sound ([2]; x1 = 0.7046): 1203 ± 2 m/s
mass density ([2]; x1 = 0.8012): 843.59 ± 0.35 kg/m3
speed of sound ([2]; x1 = 0.8012): 1206 ± 2 m/s
mass density ([2]; x1 = 0.901): 821.94 ± 0.35 kg/m3
speed of sound ([2]; x1 = 0.901): 1209 ± 2 m/s
mass density ([2]; x1 = 0.9504): 811.55 ± 0.35 kg/m3
speed of sound ([2]; x1 = 0.9504): 1211 ± 2 m/s
mass density ([2]; x1 = 1): 801.39 ± 0.35 kg/m3
speed of sound ([2]; x1 = 1): 1212 ± 2 m/s
SMILES: CCCC(C)=O [pentan-2-one] + COC(=O)OC
